Results: article PMC10931833, “Simultaneous Purification of Human Interferon Alpha-2b and Serum Albumin Using Bioprivileged Fluorinated Ionic Liquid-Based Aqueous Biphasic Systems” (International Journal of Molecular Sciences, 2024)
Read-outs that look alike come from different tables or passages of the source.

How the values were obtained:
FITC-BSA = target: T1, FITC-BSA (Bos taurus, UniProt P02769); assay: MST binding to FITC-BSA; set-up: species or system bovine; conditions: 0.41 μM BSA
T1 construct: purchased Millipore Sigma-Aldrich
Method: Herein, a commercial FITC labeling kit (Section 3) was used to fluorescently tag both IFN- α 2b and BSA. Typically, in the labeling process, one amine per protein is labeled, statistically distributing the position of the dye. […] The MST assay was performed as detailed in Section 3. The solutions were prepared with a concentration of IFN- α 2b and BSA fixed at 0.41 μ M in water. For IFN- α 2b a concentration of 2.7 μ M was also prepared to compare it with previous results on MST-binding between FILs and IFN- α 2b fluorescently labeled with a different tag. In each run of MST, a maximum concentration of a ligand is selected and consecutively diluted in sixteen capillaries. […] The experimental conditions of the MST assay only allow the study of the aggregation phenomenon individually for the first CAC.
Microscale thermophoresis (MST) measurements of the dye-labeled protein were used to conduct binding investigations. […] MST tests were conducted in a monolith NT.115 (blue/red) in accordance with the NanoTemper Technologies methodology. Medium MST power and 20% LED power (nano-blue) were set as the instrument’s default settings. For every MST measurement, a PBS buffer was used. The concentration of FITC-BSA was fixed at 0.4 μ M and FITC-IFN- α 2b was tested under two different concentrations (of 0.4 and 2.7 μ M). The ligand was used to create a set of 16 1:1 dilutions, with the starting ligand concentrations ranging from 10 to 400 mM. The typical parameters for MST traces were used for recording: […], 30 s MST power on, and 5 s MST power off. The data from three independently conducted pipetted experiments were examined using NanoTemper Technologies’ MO.Affinity Analysis software, version 2.3.

BSA [1] = target: T2, BSA (Bos taurus, UniProt P02769); assay: DSC thermal unfolding of BSA in water and aqueous solutions of ABS phase-forming components; format: physicochemical, bovine
T2 construct: purchased Millipore Sigma-Aldrich
Method: Differential scanning calorimetry (DSC) measurements were performed with Nano DSC equipment, as detailed in Section 3, and used to determine the melting temperature (T m ) and enthalpy ( Δ H) of protein unfolding. DSC analyzes changes in the structure and stability of proteins as thermal transitions at the nanoscale. Using DSC to measure heat capacity as a function of the temperature of a well-studied protein such as BSA provides keen insights into folding and unfolding processes, as well as factors affecting stability. Due to the volume and concentration requirements of the DSC technique, and the constraints in available quantities of IFN- α 2b the DSC experiments on the ABS phase-forming components’ effect on the structural properties of proteins were attained only for BSA.
The T m of BSA, which corresponds to the thermal unfolding transition midpoint, was measured in the absence and presence of the ABS phase-forming components at increasing concentrations (see Figure 1 and Table 2).

BSA [2] = target: T2, BSA; assay: CD thermal unfolding (Tm) of BSA; format: physicochemical, bovine
Text: The thermal stability assessed by far-UV CD is solely determined through the thermal decay of the alpha-helical structure.

BSA [3] = target: T2, BSA; assay: Far-UV CD secondary structure of BSA (CONTIN-LL deconvolution); format: physicochemical, bovine; set-up: Regular Alpha Helix / Distorted Alpha Helix / Regular Beta Sheet / Distorted Beta Sheet / Turns / Unordered: unit not given here; conditions: for Distorted Alpha Helix / Distorted Beta Sheet / Regular Alpha Helix / Regular Beta Sheet / Turns / Unordered: 25 °C
Text: Circular dichroism (CD) is widely used to study the secondary structures of proteins, peptides and nucleic acids, because it requires a low concentration sample, is a nondestructive method, allows studying a wide range of variables (temperature, pH, etc.), and provides information on the effect of added ligands on protein folding and interactions. Far-UV (190–260 nm) CD spectroscopy was used to assess the IFN- α 2b and BSA secondary structure since the spectra are characteristic of different structural elements.
Circular dichroism (CD) spectra were collected in a 10 mm quartz cuvette and a Chirascan spectropolarimeter (Applied Photophysics, UK) at room temperature. All CD spectra were recorded in the far-UV range of 190 to 260 nm at scan rates of 50 nm/min, with 4 accumulations, and a response time of 3 s; CD spectra were collected. For each CD experiment, two distinct duplicates were acquired and combined. BSA was fixed at 1 mg/mL, solvent concentrations ranging from 0.1 to 200 mM were used, and the spectra were translated to MRE after being expressed in terms of molar ellipticity. Spectral deconvolution was carried out with DichroWeb using the CONTIN-LL deconvolution algorithm with the SMP180 reference set.

[4] = 1.0 mg/mL BSA, 0.1 mM component
[5] = 1.0 mg/ml BSA, 200 mM component aqueous solution
[6] = 1.0 mg/mL BSA, 120 mM component
[7] = 1.0 mg/mL BSA, 200 mM component
[8] = 1.2-1.6 mg/mL BSA in [N1112(OH)][H2PO4]-rich phase of BP#8

T1 sequence (P02769 25-607): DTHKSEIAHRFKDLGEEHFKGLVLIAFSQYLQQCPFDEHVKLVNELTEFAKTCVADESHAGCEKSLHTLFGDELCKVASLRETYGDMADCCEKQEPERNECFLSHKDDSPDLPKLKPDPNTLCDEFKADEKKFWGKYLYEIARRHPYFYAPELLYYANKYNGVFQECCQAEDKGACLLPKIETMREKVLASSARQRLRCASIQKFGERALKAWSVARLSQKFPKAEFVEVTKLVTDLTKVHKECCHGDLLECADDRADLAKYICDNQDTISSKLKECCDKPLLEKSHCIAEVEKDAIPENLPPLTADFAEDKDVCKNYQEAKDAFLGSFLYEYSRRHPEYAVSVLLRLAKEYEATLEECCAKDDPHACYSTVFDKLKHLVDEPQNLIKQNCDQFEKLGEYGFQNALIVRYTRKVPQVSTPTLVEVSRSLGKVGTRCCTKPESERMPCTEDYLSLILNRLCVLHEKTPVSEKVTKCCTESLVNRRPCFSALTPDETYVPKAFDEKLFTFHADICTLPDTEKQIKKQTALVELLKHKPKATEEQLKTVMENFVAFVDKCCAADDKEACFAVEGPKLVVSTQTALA
T2 sequence (P02769 25-607): as above

**Q.** Which results are given for `OC[C@H]1O[C@@](CO)(O[C@H]2O[C@H](CO)[C@@H](O)[C@H](O)[C@H]2O)[C@@H](O)[C@@H]1O` [Sucrose, sucrose]?
**A.** Kd (FITC-BSA; max. conc. first capillary 12.5 mM (monomer)): no binding detected; Kd (FITC-BSA; max. conc. first capillary 400 mM (monomer)): no binding detected; Tm (BSA [1]; [4]): 79.97 °C; ΔG (BSA [1]; [4]): 19.6 kcal/mol; ΔHcal (BSA [1]; [4]): 125 kcal/mol; ΔHcal/ΔHvH (BSA [1]; [4]): 0.968; ΔHvH (BSA [1]; [4]): 129.2 kcal/mol; ΔS (BSA [1]; [4]): 1.480 KJ/(mol.K); Tm (BSA [1]; 1.0 mg/mL BSA, 1 mM component): 81.63 °C; ΔG (BSA [1]; 1.0 mg/mL BSA, 1 mM component): 26.77 kcal/mol; ΔHcal (BSA [1]; 1.0 mg/mL BSA, 1 mM component): 167.4 kcal/mol; ΔHcal/ΔHvH (BSA [1]; 1.0 mg/mL BSA, 1 mM component): 0.980; ΔHvH (BSA [1]; 1.0 mg/mL BSA, 1 mM component): 170.8 kcal/mol; ΔS (BSA [1]; 1.0 mg/mL BSA, 1 mM component): 1.974 KJ/(mol.K); Tm (BSA [1]; 1.0 mg/mL BSA, 5 mM component): 80.68 °C; ΔG (BSA [1]; 1.0 mg/mL BSA, 5 mM component): 20.87 kcal/mol; ΔHcal (BSA [1]; 1.0 mg/mL BSA, 5 mM component): 131.5 kcal/mol; ΔHcal/ΔHvH (BSA [1]; 1.0 mg/mL BSA, 5 mM component): 1.018; ΔHvH (BSA [1]; 1.0 mg/mL BSA, 5 mM component): 129.1 kcal/mol; ΔS (BSA [1]; 1.0 mg/mL BSA, 5 mM component): 1.552 KJ/(mol.K); Tm (BSA [1]; 1.0 mg/mL BSA, 10 mM component): 80.77 °C; ΔG (BSA [1]; 1.0 mg/mL BSA, 10 mM component): 25.17 kcal/mol; ΔHcal (BSA [1]; 1.0 mg/mL BSA, 10 mM component): 159 kcal/mol; ΔHcal/ΔHvH (BSA [1]; 1.0 mg/mL BSA, 10 mM component): 1.046; ΔHvH (BSA [1]; 1.0 mg/mL BSA, 10 mM component): 151.9 kcal/mol; ΔS (BSA [1]; 1.0 mg/mL BSA, 10 mM component): 1.878 KJ/(mol.K); effect on BSA Tm (DSC) (BSA [1]; tested concentration range vs water): maintained; Tm, Ellipticity 192 nm (BSA [2]; [5]): 70.098 °C; Tm, Ellipticity 208 nm (BSA [2]; [5]): 73.063 °C; Tm, Ellipticity 222 nm (BSA [2]; [5]): 71.977 °C; Distorted Alpha Helix (BSA [3]; [4]): 0.205; Distorted Beta Sheet (BSA [3]; [4]): 0.026; Regular Alpha Helix (BSA [3]; [4]): 0.391; Regular Beta Sheet (BSA [3]; [4]): 0.000; Turns (BSA [3]; [4]): 0.136; Unordered (BSA [3]; [4]): 0.242; Distorted Alpha Helix (BSA [3]; 1.0 mg/mL BSA, 1 mM component): 0.216; Distorted Beta Sheet (BSA [3]; 1.0 mg/mL BSA, 1 mM component): 0.023; Regular Alpha Helix (BSA [3]; 1.0 mg/mL BSA, 1 mM component): 0.428; Regular Beta Sheet (BSA [3]; 1.0 mg/mL BSA, 1 mM component): 0.000; Turns (BSA [3]; 1.0 mg/mL BSA, 1 mM component): 0.135; Unordered (BSA [3]; 1.0 mg/mL BSA, 1 mM component): 0.198; Distorted Alpha Helix (BSA [3]; 1.0 mg/mL BSA, 5 mM component): 0.225; Distorted Beta Sheet (BSA [3]; 1.0 mg/mL BSA, 5 mM component): 0.022; Regular Alpha Helix (BSA [3]; 1.0 mg/mL BSA, 5 mM component): 0.427; Regular Beta Sheet (BSA [3]; 1.0 mg/mL BSA, 5 mM component): 0.000; Turns (BSA [3]; 1.0 mg/mL BSA, 5 mM component): 0.136; Unordered (BSA [3]; 1.0 mg/mL BSA, 5 mM component): 0.19; Distorted Alpha Helix (BSA [3]; 1.0 mg/mL BSA, 25 mM component): 0.196; Distorted Beta Sheet (BSA [3]; 1.0 mg/mL BSA, 25 mM component): 0.024; Regular Alpha Helix (BSA [3]; 1.0 mg/mL BSA, 25 mM component): 0.333; Regular Beta Sheet (BSA [3]; 1.0 mg/mL BSA, 25 mM component): 0.004; Turns (BSA [3]; 1.0 mg/mL BSA, 25 mM component): 0.131; Unordered (BSA [3]; 1.0 mg/mL BSA, 25 mM component): 0.312; Distorted Alpha Helix (BSA [3]; 1.0 mg/mL BSA, 55 mM component): 0.211; Distorted Beta Sheet (BSA [3]; 1.0 mg/mL BSA, 55 mM component): 0.026; Regular Alpha Helix (BSA [3]; 1.0 mg/mL BSA, 55 mM component): 0.412; Regular Beta Sheet (BSA [3]; 1.0 mg/mL BSA, 55 mM component): 0.000; Turns (BSA [3]; 1.0 mg/mL BSA, 55 mM component): 0.138; Unordered (BSA [3]; 1.0 mg/mL BSA, 55 mM component): 0.214; Distorted Alpha Helix (BSA [3]; 1.0 mg/mL BSA, 90 mM component): 0.211; Distorted Beta Sheet (BSA [3]; 1.0 mg/mL BSA, 90 mM component): 0.025; Regular Alpha Helix (BSA [3]; 1.0 mg/mL BSA, 90 mM component): 0.4; Regular Beta Sheet (BSA [3]; 1.0 mg/mL BSA, 90 mM component): 0.000; Turns (BSA [3]; 1.0 mg/mL BSA, 90 mM component): 0.137; Unordered (BSA [3]; 1.0 mg/mL BSA, 90 mM component): 0.227; Distorted Alpha Helix (BSA [3]; [6]): 0.212; Distorted Beta Sheet (BSA [3]; [6]): 0.025; Regular Alpha Helix (BSA [3]; [6]): 0.415; Regular Beta Sheet (BSA [3]; [6]): 0.000; Turns (BSA [3]; [6]): 0.135; Unordered (BSA [3]; [6]): 0.213; Distorted Alpha Helix (BSA [3]; [7]): 0.216; Distorted Beta Sheet (BSA [3]; [7]): 0.024; Regular Alpha Helix (BSA [3]; [7]): 0.436; Regular Beta Sheet (BSA [3]; [7]): 0.000; Turns (BSA [3]; [7]): 0.136; Unordered (BSA [3]; [7]): 0.189

**Q.** Which results are given for Bovine serum albumin [BSA]?
**A.** ΔG (BSA [1]; 1.0 mg/mL BSA in water): 16.87 kcal/mol; ΔHcal (BSA [1]; 1.0 mg/mL BSA in water): 113.9 kcal/mol; ΔHvH (BSA [1]; 1.0 mg/mL BSA in water): 112.4 kcal/mol; ΔS (BSA [1]; 1.0 mg/mL BSA in water): 1.361 KJ/(mol.K); Tm, Ellipticity 192 nm (BSA [2]; 1.0 mg/mL BSA in water): 74.028 °C; Tm, Ellipticity 208 nm (BSA [2]; 1.0 mg/mL BSA in water): 74.616 °C; Tm, Ellipticity 222 nm (BSA [2]; 1.0 mg/mL BSA in water): 76.277 °C; Tm, Ellipticity 208 nm (BSA [2]; [8]): 76.122 °C; Tm, Ellipticity 222 nm (BSA [2]; [8]): 80.396 °C; Distorted Alpha Helix (BSA [3]; 1.0 mg/mL BSA in water): 0.206; Distorted Beta Sheet (BSA [3]; 1.0 mg/mL BSA in water): 0.025; Regular Alpha Helix (BSA [3]; 1.0 mg/mL BSA in water): 0.400; Regular Beta Sheet (BSA [3]; 1.0 mg/mL BSA in water): 0.000; Turns (BSA [3]; 1.0 mg/mL BSA in water): 0.136; Unordered (BSA [3]; 1.0 mg/mL BSA in water): 0.233; predicted α-helical content (BSA [3]; BSA in water, CD deconvolution): 0.61

**Q.** Which results are given for `O=S(=O)(O)C(F)(F)C(F)(F)C(F)(F)C(F)(F)F` [[N1112(OH)][C4F9SO3], (2-hydroxyethyl)trimethylammonium perfluorobutane sulfonate]?
**A.** Kd (FITC-BSA; max. conc. first capillary in 1st CAC range, read-out: Kd): 860 ± 190 µM; Kd (FITC-BSA; max. conc. first capillary in 2nd CAC range, read-out: Kd): 1490 ± 300 µM
